Peptide text beside a SMILES is read from it. * marks the point of attachment. Cbz = O=C(OCc1ccccc1)*
How the values were obtained:
Mcl-1 = Mcl-1 protein level / degradation in mitotic arrest (western blot of synchronized cells); assay type: cell-based, human
Method: (§1) The viability of cancer cell lines, and MEFs in which genes encoding IAPs had been knocked out, was analysed by using the CellTiter-Glo Luminescent Cell Viability Assay® (Promega). Cells were treated in triplicate with anti-tubulin agents for the indicated times, using dimethylsulphoxide treatment as a control. The viability of BCL2-family-member-null MEFs was analysed by propidium iodide staining, as described previously (Chen, L. et al. (2005) Molecular cell 17:393-403), after treatment with anti-tubulin agents for 48 h. Cell synchronization was achieved by culture either in serum-free medium for 12-16 h or in medium containing 2 mM thymidine for 18-24 h, release from the thymidine block with three washes in PBS, followed by culture for 8-12 h in complete growth media (compositions are described in the Supplementary Information). Cells then underwent a second thymidine block for 16-20 h, three further washes in PBS and release into complete medium containing the indicated reagents. To block MCL1 degradation, […] MG132 was added as cells entered mitotic arrest, as assessed by visual inspection. See the Examples for full methods.
Western blotting was performed essentially as described (Wertz, I. E. et al. (2004) Science (New York, N.Y 303:1371-1374). In brief, cells were lysed in corrected FLAG elution buffer (CFEB) (19.17 mM Tris (pH 7.5), 916.7 μM MgCl2, 92.5 mM NaCl and 0.1% Triton X-100) with protease and phosphatase inhibitors; in some cases 6 M urea was added. Cleared lysates were quantitated and equal amounts of proteins were reduced, alkylated, separated by SDS-PAGE, and transferred onto PVDF membranes (Invitrogen) following standard procedures. Western blotting was performed as recommended by the respective antibody manufacturers. Patient tissue and xenograft samples were lysed in 5× volume of CFEB with protease inhibitors using Fast prep 24 (MP Biologicals). Tissue lysates were cleared and 40 μg total protein was prepared for western blotting analysis as described above. Immunoprecipitations were performed with the indicated antibodies as described (Willis, S. N. et al. (2007) Science (New York, N.Y 315:856-859; Wertz, I. E. et al. (2004) Science (New York, N.Y 303:1371-1374). PP2A activity was performed on PP2A or Mcl-1 immunoprecipitates as recommended by the manufacturer (Upstate)

[1] = tested on: murine embryonic fibroblasts (MEFs); experiment: Viability of BCL2-family-member-null MEFs by propidium iodide staining after anti-tubulin agents; assay type: cell-based; settings: 48 hours
Method: as §1

HCT116 cells = experiment: Live time-lapse imaging of mitotic fate; assay type: cell-based, human
Method: HCT116 parental or FBW7−/− cells expressing shLacZ or shMcl-1 were plated at 15,000-30,000 cells per well in 96-well μ-plates (ibidi GmbH) and infected with GFP-H2B baculovirus (Invitrogen) 24 hours prior to adding paclitaxel or vincristine. Cells were imaged live at 37° C. with 5% CO2 using a Nikon TiE® microscope with a Cool Snap® CCD camera (Roper Scientific) and a Plan Apo VC 20× 0.75 NA objective. Three images with 6 μm z-steps were acquired for each position every 10 minutes for 43 hours. Mitotic fate was analyzed manually using NIS-Elements software (Nikon) and numerical data was complied and statistically analyzed using Excel (Microsoft). Fifty mitotic cells were analyzed for each condition and p-values were calculated for the change in the number of cells that exited mitosis or entered apoptosis using the one-tailed Fisher's exact test.

[2] = tested on: FBW7-WT, FBW7−/− or FBW7 mutant colon cancer cell lines (HCT116, DLD1); experiment: Cell viability of colon cancer cell lines by FBW7 status (CellTiter-Glo); assay type: cell-based, human; settings: 48 hours
Method: as §1
were synthesized by Ambion and experiments were performed as described (Huang, H. C., et al (2009) Cancer cell 16:347-358). For viability experiments using stable cell lines transfected with doxycycline-inducible shRNAs to LacZ or Mcl-1 ORF, cells were plated in 10 cm2 plates with 0.2 μg/mL doxycycline for two days. On the third day, cells were plated in to 96-well plates at 5×10^3 per well for viability assays as described above. […] For western blot analysis, cells were harvested at indicated time points and processed as described above.

Mcl-1 T92 = experiment: In vitro kinase reactions: percent phosphorylation of full-length recombinant Mcl-1 at T92; assay type: biochemical, human; settings: single kinase reactions, peak areas of 0 and 1P, triple charged state
Method: (§2) To determine the suitability of residues in Mcl-1 as kinase substrates, 10 μM of Mcl-1 was incubated with selected kinase at enzyme concentrations between 25 and 100 nM. For these reactions the Mcl-1 was dialyzed into 20 mM Phosphate, 50 mM Tris pH 7.5 150 mM NaCl, 5 mM DTT and 0.5% CHAPS. The protein solution was further supplemented with MgCl2 to 10 mM and ATP to 1 mM prior to addition of kinase. Purified recombinant kinases were purchased from Invitrogen Co. (Carlsbad, Calif.).
(§3) 10 μl of each of the Mcl-1 kinase reactions (100 pmol) were loaded onto a 4-12% Bis-Tris gel for separation by SDS-PAGE after reduction. Mcl-1 bands were excised from the gel, dehydrated (50% acetonitrile in 50 mM ammonium bicarbonate then 100% acetonitrile washes), and incubated with 0.2 μg trypsin overnight at 37° C.
(§4) Samples were injected in duplicate via autosampler onto a nanoAcquity® UPLC (Waters, Milford, Mass.) and analyzed on-line via nanospray ionization into an LTQ-Orbitrap® mass spectrometer at a concentration of 300 fmol synthetic peptide mix per injection. Areas were integrated for the isotopic and kinase phosphorylated peptides, and compared to their non-phosphorylated peptide counterparts to obtain percent phosphorylation values.

Mcl-1 S159 = experiment: In vitro kinase reactions: percent phosphorylation of full-length recombinant Mcl-1 at S159 alone; assay type: biochemical, human; settings: % phos on S159 alone; for Percent phosphorylation S159, AVE: average; for Percent phosphorylation S159, INJ1: sample injection 1; for Percent phosphorylation S159, INJ2: sample injection 2
Method: as §2, §3
as §4, with “values. For phosphorylation analysis of T92, no synthetic peptide was available so peak areas of the phosphorylated peptide covering residues 76-95 was divided by the total occurrence of peptide 76-95 in both phosphorylated and non-phosphorylated forms.” for “values.”

Mcl-1 S159/T163 = experiment: In vitro kinase reactions: percent phosphorylation of full-length recombinant Mcl-1 at S159+T163; assay type: biochemical, human; settings: for Percent phosphorylation S159/T163, AVE: average; for Percent phosphorylation S159/T163, INJ1: sample injection 1; for Percent phosphorylation S159/T163, INJ2: sample injection 2
Method: as §2, §3, §4

Mcl-1 T163 = experiment: In vitro kinase reactions: percent phosphorylation of full-length recombinant Mcl-1 at T163; assay type: biochemical, human; settings: single kinase reactions
Method: as §2, §3, §4

Mcl-1 S121 = experiment: In vitro kinase reactions: percent phosphorylation of full-length recombinant Mcl-1 at S121; assay type: biochemical, human; settings: for Percent phosphorylation S121, AVE: average of INJ1 and INJ2; for Percent phosphorylation S121, INJ1: sample injection 1; for Percent phosphorylation S121, INJ2: sample injection 2
Method: as §2, §3, §4

[3] = % phos on S159+T163, CDK1 + kinase panel reactions
[4] = % phos on S159+T163, single kinase reactions

With `CC(C)C[C@@H](C=O)NC(=O)[C@H](CC(C)C)NC(=O)[C@H](CC(C)C)NC(=O)OCc1ccccc1` [MG132] (Cbz-Leu-Leu-Leu-aldehyde) the “Mcl-1 degradation in mitotic arrest” value (Mcl-1; HeLa, HCT116 cells, MG132 added as cells entered mitotic arrest) was “blocked Mcl-1 degradation”.

With `Nc1[nH]nc2nnc(-c3c(-c4ccccc4)nn4ccccc34)cc12` [FR180204] the “Mcl-1 degradation in mitotic arrest” value (Mcl-1; HeLa released into paclitaxel, CGP74514A 2 μM, FR180204 2 μM, SP600125 25 μM, SB203580 2 μM added on entry into mitotic arrest) was “but not ERK, attenuate Mcl-1 degradation”.

In the case of `CC[C@]1(O)C[C@H]2CN(CCc3c([nH]c4ccccc34)[C@@](C(=O)OC)(c3cc4c(cc3OC)N(C=O)[C@H]3[C@@](O)(C(=O)OC)[C@H](OC(C)=O)[C@]5(CC)C=CCN6CC[C@]43[C@@H]65)C2)C1` [vincristine, 22-Oxovincaleukoblastine], the sensitivity to killing ([1]; BCL-X−/− MEFs vs wild-type) is reported as “not BCL-X enhances sensitivity”, the sensitivity to killing ([1]; MCL-1−/− MEFs vs wild-type) is reported as “enhanced sensitivity” and the “drug-induced apoptosis upon decreasing Mcl-1 protein levels” value (HCT116 cells; FBW7-null cells with Mcl-1 shRNA vs control shRNA) is reported as “enhanced”. The “exit from drug-induced mitotic arrest (mitotic slippage)” value (HCT116 cells; FBW7-null vs FBW7-wild-type cells) was “more readily”, the “sensitivity to drug-induced death upon reducing Mcl-1 protein” value ([2]; FBW7-null HCT116 cells, doxycycline-inducible Mcl-1 shRNA) was “restored their sensitivity” and the “resistance to drug-induced cell death” value ([2]; FBW7-null cell lines relative to wild-type cells) was “more resistant”.

“CSNK2: purified recombinant kinase purchased from Invitrogen” was tested, and the “Percent phosphorylation T92, AVE” value (Mcl-1 T92; average) was 0.10%, the “Percent phosphorylation T92, INJ1” value (Mcl-1 T92; sample injection 1) was 0.09% and the “Percent phosphorylation T92, INJ2” value (Mcl-1 T92; sample injection 2) was 0.10%. The “Percent phosphorylation S159, AVE” value (Mcl-1 S159; CDK1 + kinase panel reactions) was 17.13%, the “Percent phosphorylation S159, INJ1” value (Mcl-1 S159; CDK1 + kinase panel reactions) was 16.35% and the “Percent phosphorylation S159, INJ2” value (Mcl-1 S159; CDK1 + kinase panel reactions) was 17.90%. The “Percent phosphorylation S159, AVE” value (Mcl-1 S159; single kinase reactions) was 39.13%, the “Percent phosphorylation S159, INJ1” value (Mcl-1 S159; single kinase reactions) was 40.30% and the “Percent phosphorylation S159, INJ2” value (Mcl-1 S159; single kinase reactions) was 37.95%. The “Percent phosphorylation S159/T163, AVE” value (Mcl-1 S159/T163; [3]) was 7.70%, the “Percent phosphorylation S159/T163, INJ1” value (Mcl-1 S159/T163; [3]) was 8.30% and the “Percent phosphorylation S159/T163, INJ2” value (Mcl-1 S159/T163; [3]) was 7.09%. For the same molecule, the “Percent phosphorylation S159/T163, AVE” value (Mcl-1 S159/T163; [4]) was 3.80%, the “Percent phosphorylation S159/T163, INJ1” value (Mcl-1 S159/T163; [4]) was 5.61% and the “Percent phosphorylation S159/T163, INJ2” value (Mcl-1 S159/T163; [4]) was 1.99%. For the same molecule, the “Percent phosphorylation T163, AVE” value (Mcl-1 T163; average of INJ1 and INJ2) was 0.00%, the “Percent phosphorylation T163, INJ1” value (Mcl-1 T163; sample injection 1) was 0.00% and the “Percent phosphorylation T163, INJ2” value (Mcl-1 T163; sample injection 2) was 0.00%. The “Percent phosphorylation S121, AVE” value (Mcl-1 S121; CDK1 + kinase panel reactions) was 21.48%, the “Percent phosphorylation S121, INJ1” value (Mcl-1 S121; CDK1 + kinase panel reactions) was 20.17% and the “Percent phosphorylation S121, INJ2” value (Mcl-1 S121; CDK1 + kinase panel reactions) was 22.78%. For the same molecule, the “Percent phosphorylation S121, AVE” value (Mcl-1 S121; single kinase reactions) was 10.28%, the “Percent phosphorylation S121, INJ1” value (Mcl-1 S121; single kinase reactions) was 10.20% and the “Percent phosphorylation S121, INJ2” value (Mcl-1 S121; single kinase reactions) was 10.36%.
